Assays:
[1] = tested on: TRPM8; assay: Antisense knockdown of TRPM8, DRG immunoblots (TRPM8:GAPDH); assay type: in vivo, rat; conditions: for TRPM8:GAPDH ratio in DRG: intrathecal oligonucleotide infusion
Excerpt: Antisense and mis-sense oligonucleotides were 22-mers with phosphorothioate bonds at the last two positions at 5′ and 3′ ends (MWG Biotech, Ebersberg, Germany). Antisense extended from base −10 to base +12 relative to the start of the open reading frame for the rat TRPM8 gene: 5′ C*T*CGAAGGACATCTTGCCGT*G*G 3′, where * represents phosphorothioate linkages. Mis-sense was designed with 4 inversions of C/G or A/T as appropriate at residues 3, 11, 14 and 22, preserving overall G/C content. BLAST searches of both oligonucleotides indicated no significant complementarity to any known gene sequence. 14-day or 7-day osmotic minipumps (for CCI experiments or naïve electrophysiology experiments respectively—Alzet Minipump, models 2002, 2001; Charles River, UK) containing oligonucleotides (1 μg/μl in sterile saline) were connected to canulae inserted under the dura of the spinal cord to level L5/6 and produced a predicted infusion rate of 0.5 μl/h. CCI surgery was performed at the same time as minipump implantation. Sensory tests were carried out to assess the time-course of behavioural sensitisation in animals which had also undergone a CCI injury. Icilin was applied topically rather than intrathecally so as to prevent any interference with the infusion canula. […]
Ipsilateral or contralateral L4-L6 dorsal root ganglia (DRG) were taken from CCI animals (n=6), and from […]. […] Blots were incubated with rabbit polyclonal antibodies to TRPM8 (either an antibody raised against TRPM8 residues 278-292 and 1090-1104 (human); 1:500; Abcam Ltd., Cambridge, UK or occasionally an antibody raised against TRPM8 residues 656-680 (rat); 1:100; Phoenix Peptides, Belmont, Calif., USA), a rabbit polyclonal antibody to TRPV1 (1:250, Chemicon International Ltd, Harrow, UK) or a mouse monoclonal antibody to glyceraldehyde-3-phosphate dehydrogenase (GAPDH, 1:750; Chemicon) and immunoreactive bands were detected by […] secondary antibody and enhanced chemiluminescence. Quantitative densitometry analysis of protein bands was performed using the ScanAnalysis (Elsevier) programme.

[2] = tested on: rats with chronic constriction injury (CCI); assay: Sensitivity to noxious cold (4° C. water) in CCI animals with oligonucleotide infusion; assay type: in vivo, rat; conditions: at peak, control CCI 8.1±0.5 s
Method: Thermal sensitivity was assessed by measuring paw withdrawal latency (PWL, s) in response to a noxious thermal stimulus (Hargreaves' thermal stimulator, Linton Instrumentation, Diss, UK) directed to the hindpaw mid-plantar glabrous surface. Mechanical sensitivity was recorded as the paw withdrawal threshold (PWT, mN/mm^2) to calibrated von Frey filaments (Stoelting, Ill., US), as previously described^[39]. Sensitivity to noxious cold was assessed by placing animals in a waterbath with an aluminium floor containing 1 cm deep 4° C. water and counting the time the paw was held suspended over a 20 s period.
Antisense and mis-sense oligonucleotides were 22-mers with phosphorothioate bonds at the last two positions at 5′ and 3′ ends (MWG Biotech, Ebersberg, Germany). Antisense extended from base −10 to base +12 relative to the start of the open reading frame for the rat TRPM8 gene: 5′ C*T*CGAAGGACATCTTGCCGT*G*G 3′, where * represents phosphorothioate linkages. Mis-sense was designed with 4 inversions of C/G or A/T as appropriate at residues 3, 11, 14 and 22, preserving overall G/C content. BLAST searches of both oligonucleotides indicated no significant complementarity to any known gene sequence. […]

Substance: 5′ C*T*CGAAGGACATCTTGCCGT*G*G 3′ (antisense CTCGAAGGACATCTTGCCGTGG; linkages s2 o17 s2 (s phosphorothioate, o phosphodiester), sugars by position and methylation of C not given here) [TRPM8 antisense, 22-mer with phosphorothioate bonds, base −10 to +12 of rat TRPM8 open reading frame]
- TRPM8:GAPDH ratio in DRG ([1]; contralateral to CCI): 14.9±2.1%
- TRPM8:GAPDH ratio in DRG ([1]; ipsilateral to CCI): 19.8±2.2%
- knockdown of the 128 kDa TRPM8 band in DRG ([1]; naïve rats, intrathecal delivery over 5 days): almost complete knockdown
- elevation of the paw ipsilateral to nerve injury out of 4° C. water [2]: 7.6 ± 0.6 s
